# Reference: US20240254123A1, “PYRIDOPYRIMIDINE DERIVATIVES USEFUL AS WEE1 KINASE INHIBITORS” (APREA THERAPEUTICS, INC., priority 2021, published 2024)
# Values joined by “and” are separate entries in the source; they are usually repeats but may differ in a detail not shown here. Equal entries are not always repeated.
# Tests used:
# WEE1 [1] = target: T1, WEE1 (Homo sapiens, UniProt P30291); assay: in vitro enzymatic inhibitory activity, WEE1 kinase, 10-dose IC50 mode; type: biochemical; conditions: 10 μM ATP
# T1 construct: Drug treated cells are fixed and stained with propidium iodide (PI); endogenous in cells
# T1 sequence (P30291 whole entry): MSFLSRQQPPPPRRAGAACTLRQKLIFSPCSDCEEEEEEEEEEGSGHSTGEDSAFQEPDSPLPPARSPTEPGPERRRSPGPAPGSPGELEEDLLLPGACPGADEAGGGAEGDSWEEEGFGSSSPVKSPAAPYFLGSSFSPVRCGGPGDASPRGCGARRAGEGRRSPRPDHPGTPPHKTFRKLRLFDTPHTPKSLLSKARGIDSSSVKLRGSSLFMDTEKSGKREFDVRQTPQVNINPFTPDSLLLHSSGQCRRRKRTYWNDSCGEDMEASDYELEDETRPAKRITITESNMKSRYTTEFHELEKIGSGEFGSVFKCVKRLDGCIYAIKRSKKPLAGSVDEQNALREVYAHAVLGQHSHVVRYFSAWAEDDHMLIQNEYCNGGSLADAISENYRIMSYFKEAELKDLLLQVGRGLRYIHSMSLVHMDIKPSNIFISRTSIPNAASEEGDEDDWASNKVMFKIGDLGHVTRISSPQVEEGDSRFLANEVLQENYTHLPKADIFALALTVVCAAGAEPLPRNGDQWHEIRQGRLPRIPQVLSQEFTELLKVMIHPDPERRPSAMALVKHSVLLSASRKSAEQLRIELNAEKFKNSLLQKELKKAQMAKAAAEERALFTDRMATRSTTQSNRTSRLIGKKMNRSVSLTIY
# Method: Compounds were tested against two kinases.
# Data includes raw data, % Enzyme activity (relative to DMSO controls) and curve fits.
# WEE1 [2] = target: T1, WEE1; assay: Guava flow cytometry cell cycle assay (DNA content per cell, propidium iodide); type: cell-based; conditions: for WEE1 Guava MEC Guava MEC: single agent, unit assumed; for WEE1 Guava MEC with 20 nM GEM: in µM (unit assumed)
# Excerpt: In this example, compounds described herein were subject to an assay that detects changes the phases of the cell cycle upon drug treatment, permitting the identification of drugs that affect cell proliferation in a specific manner. For example, problematic DNA replication causes the percentage of cells in S phase to increase. Thus, quantification of cells in S phase permits identification of drugs that cause defects in DNA replication. Similarly, drugs that selectively defects in progression through G2/M can also be identified. Moreover, synergy between assayed drugs and known cell cycle regulators can be determined, as exemplified by the effect of ATR inhibition when combined with agents that slow DNA replication, which causes replication fork collapse into DSBs and complete loss of DNA synthesis. Two novel drugs can also be combined to quantify synergistic effects on specific cell cycle phases.
# The assay operates by the quantification of DNA content per cell by flow cytometry. Cells are assessed for effects on cell cycle using a Guava EasyCyte™ flow cytometer (Austin, TX). Drug treated cells are fixed and stained with propidium iodide (PI) and resuspended in phosphate-buffered saline containing the PI staining buffer. During flow cytometry, PI is excited at 528 nm and is detected in a 610/20 bandpass. Readout of the […] is optical density of DNA-staining dye. The assay generates a histogram showing count of cells by amount of DNA, which is an indicator of place in the cell cycle. This rapid assay detects relative changes in the cell cycle upon drug treatment upon comparison vehicle-treated and single-agent controls for detection of combinatorial interactions. See, Table 4.
IC50 (WEE1 [1]) [nM],WEE1 Guava MEC Guava MEC (WEE1 [2]) [µM],WEE1 Guava MEC with 20 nM GEM (WEE1 [2]),SMILES
41,0.625,0.156,"CN1CCC(n2cc(Nc3ncc4c(=O)n(-c5c(Cl)cccc5Cl)cc(Br)c4n3)cn2)CC1 [Compound P1, 8-bromo-6-(2,6-dichlorophenyl)-2-[[1-(1-methyl-4-piperidyl)pyrazol-4-yl]amino]pyrido[4,3-d]pyrimidin-5-one]"
–,5,1.25,"Cc1cn(-c2c(Cl)cccc2Cl)c(=O)c2cnc(Nc3cnn(C4CCN(C)CC4)c3)nc12 [Compound P2, 6-(2,6-dichlorophenyl)-8-methyl-2-[[1-(1-methyl-4-piperidyl)pyrazol-4-yl]amino]pyrido[4,3-d]pyrimidin-5-one]"
–,2.5,0.625,"O=c1c2cnc(Nc3cnn(C4CCNCC4)c3)nc2c(C2CC2)cn1-c1c(Cl)cccc1Cl [Compound P3, 8-cyclopropyl-6-(2,6-dichlorophenyl)-2-[[1-(4-piperidyl)pyrazol-4-yl]amino]pyrido[4,3-d]pyrimidin-5-one]"
47,1.25,0.625,"CCc1cn(-c2c(Cl)cccc2Cl)c(=O)c2cnc(Nc3cnn(C4CCNCC4)c3)nc12 [Compound P4, 6-(2,6-dichlorophenyl)-8-ethyl-2-[[1-(4-piperidyl)pyrazol-4-yl]amino]pyrido[4,3-d]pyrimidin-5-one]"
–,> 5,1.25,"CCc1cn(-c2c(Cl)cccc2Cl)c(=O)c2cnc(Nc3cnn(C4CCN(C)CC4)c3)nc12 [Compound P5, 6-(2,6-dichlorophenyl)-8-ethyl-2-((1-(1-methylpiperidin-4-yl)-1H-pyrazol-4-yl)amino)pyrido[4,3-d]pyrimidin-5(6H)-one]"
–,5,1.25,"C=C(C)c1cn(-c2c(Cl)cccc2Cl)c(=O)c2cnc(Nc3cnn(C4CCNCC4)c3)nc12 [Compound P6, 6-(2,6-dichlorophenyl)-2-((1-(piperidin-4-yl)-1H-pyrazol-4-yl)amino)-8-(prop-1-en-2-yl)pyrido[4,3-d]pyrimidin-5(6H)-one]"
–,2.5,1.25,"C=C(C)c1cn(-c2c(Cl)cccc2Cl)c(=O)c2cnc(Nc3cnn(C4CCN(C)CC4)c3)nc12 [Compound P7, 6-(2,6-dichlorophenyl)-8-isopropenyl-2-[[1-(1-methyl-4-piperidyl)pyrazol-4-yl]amino]pyrido[4,3-d]pyrimidin-5-one]"
–,5,1.25,"CC(C)c1cn(-c2c(Cl)cccc2Cl)c(=O)c2cnc(Nc3cnn(C4CCNCC4)c3)nc12 [Compound P8, 6-(2,6-dichlorophenyl)-8-isopropyl-2-[[1-(4-piperidyl)pyrazol-4-yl]amino]pyrido[4,3-d]pyrimidin-5-one]"
–,5,1.25,"CC(C)c1cn(-c2c(Cl)cccc2Cl)c(=O)c2cnc(Nc3cnn(C4CCN(C)CC4)c3)nc12 [Compound P9, 6-(2,6-dichlorophenyl)-8-isopropyl-2-[[1-(1-methyl-4-piperidyl)pyrazol-4-yl]amino]pyrido[4,3-d]pyrimidin-5-one]"
27,0.313,0.156,"O=c1c2cnc(Nc3ccc4c(c3)CNCC4)nc2c(Br)cn1-c1c(Cl)cccc1Cl [Compound P10, 8-bromo-6-(2,6-dichlorophenyl)-2-(1,2,3,4-tetrahydroisoquinolin-7-ylamino)pyrido[4,3-d]pyrimidin-5-one]"
–,> 1.25,0.625,"CN1CCCC(n2cc(Nc3ncc4c(=O)n(-c5c(Cl)cccc5Cl)cc(Br)c4n3)cn2)C1 (centres unmarked) [Compound P12, 8-bromo-6-(2,6-dichlorophenyl)-2-[[1-(1-methyl-3-piperidyl)pyrazol-4-yl]amino]pyrido[4,3-d]pyrimidin-5-one]"
–,0.625,0.313,"O=c1c2cnc(Nc3cnn(C4CCCNC4)c3)nc2c(Br)cn1-c1c(Cl)cccc1Cl (centres unmarked) [Compound P13, 8-bromo-6-(2,6-dichlorophenyl)-2-[[1-(3-piperidyl)pyrazol-4-yl]amino]pyrido[4,3-d]pyrimidin-5-one]"
–,> 5,1.25,"Cc1ccc(Cl)c(-n2cc(Br)c3nc(Nc4cnn(C5CCNCC5)c4)ncc3c2=O)c1Cl [Compound P14, 8-bromo-6-(2,6-dichloro-3-methyl-phenyl)-2-[[1-(4-piperidyl)pyrazol-4-yl]amino]pyrido[4,3-d]pyrimidin-5-one]"
–,5,1.25,"Cc1ccc(Cl)c(-n2cc(Br)c3nc(Nc4cnn(C5CCN(C)CC5)c4)ncc3c2=O)c1Cl [Compound P15, 8-bromo-6-(2,6-dichloro-3-methyl-phenyl)-2-[[1-(1-methyl-4-piperidyl)pyrazol-4-yl]amino]pyrido[4,3-d]pyrimidin-5-one]"
–,2.5,0.625,"Cc1cc(Cl)c(-n2cc(Br)c3nc(Nc4cnn(C5CCNCC5)c4)ncc3c2=O)c(Cl)c1 [Compound P16, 8-bromo-6-(2,6-dichloro-4-methyl-phenyl)-2-[[1-(4-piperidyl)pyrazol-4-yl]amino]pyrido[4,3-d]pyrimidin-5-one]"
–,2.5,0.625,"Cc1cc(Cl)c(-n2cc(Br)c3nc(Nc4cnn(C5CCN(C)CC5)c4)ncc3c2=O)c(Cl)c1 [Compound P17, 8-bromo-6-(2,6-dichloro-4-methyl-phenyl)-2-[[1-(1-methyl-4-piperidyl)pyrazol-4-yl]amino]pyrido[4,3-d]pyrimidin-5-one]"
–,0.313,0.156,"O=c1c2cnc(Nc3ccc4c(c3)CNCC43CC3)nc2c(Br)cn1-c1c(Cl)cccc1Cl [Compound P19, 8-bromo-6-(2,6-dichlorophenyl)-2-(spiro[2,3-dihydro-1H-isoquinoline-4,1′-cyclopropane]-7-ylamino)pyrido[4,3-d]pyrimidin-5-one]"
–,0.313,0.156,"CN1Cc2cc(Nc3ncc4c(=O)n(-c5c(Cl)cccc5Cl)cc(Br)c4n3)ccc2C2(CC2)C1 [Compound P20, 8-bromo-6-(2,6-dichlorophenyl)-2-[(2-methylspiro[1,3-dihydroisoquinoline-4,1′-cyclopropane]-7-yl)amino]pyrido[4,3-d]pyrimidin-5-one]"
–,0.625,0.313 and 0.625,"CN1CCN(c2ccc(Nc3ncc4c(=O)n(-c5c(Cl)cccc5Cl)cc(Br)c4n3)cc2)CC1 [Compound P21, 8-bromo-6-(2,6-dichlorophenyl)-2-[4-(4-methylpiperazin-1-yl)anilino]pyrido[4,3-d]pyrimidin-5-one]"
–,2.5,1.25,"CN(C)C1CCc2ccc(Nc3ncc4c(=O)n(-c5c(Cl)cccc5Cl)cc(Br)c4n3)cc21 (centres unmarked) [Compound P22, 8-bromo-6-(2,6-dichlorophenyl)-2-[[3-(dimethylamino)indan-5-yl]amino]pyrido[4,3-d]pyrimidin-5-one]"
–,5,2.5,"NC1CCc2ccc(Nc3ncc4c(=O)n(-c5c(Cl)cccc5Cl)cc(Br)c4n3)cc21 (centres unmarked) [Compound P23, 2-[(3-aminoindan-5-yl)amino]-8-bromo-6-(2,6-dichlorophenyl)pyrido[4,3-d]pyrimidin-5-one]"
–,5,1.25,"O=c1c2cnc(Nc3ccc4c(c3)C(O)CC4)nc2c(Br)cn1-c1c(Cl)cccc1Cl (centres unmarked) [Compound P24, 8-bromo-6-(2,6-dichlorophenyl)-2-[(3-hydroxyindan-5-yl)amino]pyrido[4,3-d]pyrimidin-5-one]"
–,5,0.625,"Cc1cccc(F)c1-n1cc(Br)c2nc(Nc3cnn(C4CCNCC4)c3)ncc2c1=O [Compound P25, 8-bromo-6-(2-fluoro-6-methyl-phenyl)-2-[[1-(4-piperidyl)pyrazol-4-yl]amino]pyrido[4,3-d]pyrimidin-5-one]"
–,5,0.625,"Cc1cccc(F)c1-n1cc(Br)c2nc(Nc3cnn(C4CCN(C)CC4)c3)ncc2c1=O [Compound P26, 8-bromo-6-(2-fluoro-6-methyl-phenyl)-2-[[1-(1-methyl-4-piperidyl)pyrazol-4-yl]amino]pyrido[4,3-d]pyrimidin-5-one]"
–,1.25,0.625,"Cc1cccc(C)c1-n1cc(Br)c2nc(Nc3cnn(C4CCN(C)CC4)c3)ncc2c1=O [Compound P27, 8-bromo-6-(2,6-dimethylphenyl)-2-[[1-(1-methyl-4-piperidyl)pyrazol-4-yl]amino]pyrido[4,3-d]pyrimidin-5-one]"
